# Source: PubChem BioAssay AID977613 (Broad Institute, 2014)
# Active and inactive are the calls of the source. The rule behind the calls is not given here.
# Tested on: Broad 7084-01 inhibitor HTS, set 2
# Assay: inhibitors in Broad screen 7084-01, set 2 (AID 977613);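 note: host cells are infected with parasite promastigotes that become internalized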
row,Compound,active concentration
1,COc1ccccc1S(=O)(=O)N1CC[C@@H]2[C@H]1c1cc(-c3ccc(C#N)cc3)ccc1N[C@@H]2CO,> 10 µM (inactive)
2,Cc1cccc(S(=O)(=O)N2C[C@H](O)COC[C@@H]3O[C@@H](CC(=O)Nc4ccccc4)CC[C@H]32)c1,> 10 µM (inactive)
3,C/C=C/c1ccc([C@H]2[C@@H](CO)N(C(C)=O)C23CN(C(=O)c2ccc(F)cc2)C3)cc1,> 10 µM (inactive)
4,O=C(Nc1ccccc1F)N1CC(=O)N2[C@@H](CO)[C@H](c3ccc(-c4cccnc4)cc3)[C@@H]2C1,> 10 µM (inactive)
5,CN1C(=O)c2cc(NC(=O)Nc3ccccc3Cl)ccc2OC[C@H]2O[C@@H](CC(=O)NCCCN3CCOCC3)CC[C@@H]21,> 10 µM (inactive)
6,COc1ccc(C#Cc2ccc([C@H]3[C@@H](CO)N4C(=O)CN(C(=O)c5ccc(F)cc5)C[C@H]34)cc2)cc1,> 10 µM (inactive)
7,CCC(=O)N1CC2(C1)CN(C(=O)c1cnccn1)[C@H](CO)c1c2c2ccc(OC)cc2n1C,> 10 µM (inactive)
8,O=C(C[C@@H]1CC[C@H]2[C@@H](COC[C@@H](O)CN2C(=O)Nc2ccc(C(F)(F)F)cc2)O1)NCC1CC1,> 10 µM (inactive)
9,O=C(CC1CC1)N1[C@H](CO)[C@@H]2c3ccccc3N(S(=O)(=O)c3ccccc3F)C[C@@H]21,> 10 µM (inactive)
10,CCCN1[C@H](C(=O)Nc2nccs2)[C@@H](CO)[C@@H]2Cn3c(ccc(-c4ccccc4OC)c3=O)[C@@H]21,> 10 µM (inactive)
11,CCN1CC(=O)N2[C@H](CO)[C@H](c3ccc(Br)cc3)[C@@H]2C1,> 10 µM (inactive)
12,COc1ccc(-c2ccccc2[C@@H]2[C@@H](C#N)N(C(=O)NC3CCCCC3)[C@H]2CO)cc1,> 10 µM (inactive)
13,CCN1CC(=O)N2[C@H](CO)[C@@H](c3ccc(Br)cc3)[C@@H]2C1,> 10 µM (inactive)
14,CC(C)NC(=O)N1[C@H](CO)[C@@H](c2ccccc2-c2ccc(F)cc2)[C@@H]1C#N,> 10 µM (inactive)
15,CN(C)CC(=O)N1CCCCN2[C@H](CO)[C@H](c3ccc(/C=C/c4ccccc4)cc3)[C@H]2C1,< 10 µM
16,O=C(Nc1ccc(F)cc1)N1[C@@H]2CNc3ccccc3[C@@H]2[C@@H]1CO,> 10 µM (inactive)
17,CN1C(=O)c2cc(NS(C)(=O)=O)ccc2OC[C@@H]2O[C@@H](CC(=O)NC3CCCCC3)CC[C@H]21,> 10 µM (inactive)
18,COc1ccc2c3c([nH]c2c1)[C@@H](CO)N(S(=O)(=O)c1ccc(C)cc1)CC31CCN(C(=O)Cc2cccnc2)CC1,> 10 µM (inactive)
19,COc1cccc(NC(=O)Nc2ccc3c(c2)C(=O)N(C)[C@@H]2CC[C@@H](CC(=O)NCCc4ccccc4)O[C@@H]2CO3)c1,> 10 µM (inactive)
20,CC(C)NC(=O)Nc1ccc2c(c1)C(=O)N(C)[C@@H]1CC[C@@H](CC(=O)NCc3ccc(F)cc3)O[C@H]1CO2,> 10 µM (inactive)
21,CCC(=O)N1[C@@H](CO)[C@@H](c2ccccc2)C12CN(C(=O)c1ccc3c(c1)OCO3)C2,> 10 µM (inactive)
22,CCCNC(=O)N1CC(=O)N2[C@@H](CO)[C@@H](c3ccc(C#CCC4CCCC4)cc3)[C@@H]2C1,> 10 µM (inactive)
23,COCC(=O)N1[C@H](C#N)[C@H](c2ccccc2-c2ccccc2F)[C@H]1CO,> 10 µM (inactive)
24,O=C(c1cccc(F)c1)N1C[C@@H]2[C@H](c3ccccc31)[C@H](CO)N2C(=O)C1CCOCC1,> 10 µM (inactive)

row,Compound,active concentration
1,COc1ccc(-c2ccc([C@@H]3[C@H]4CN(C(=O)Cc5ccncc5)CCCCN4[C@H]3CO)cc2)cc1,> 10 µM (inactive)
2,Cc1ccccc1-c1ccccc1[C@@H]1[C@H](C#N)N(C(=O)c2ccccc2)[C@H]1CO,> 10 µM (inactive)
3,OC[C@@H]1[C@@H](c2ccccc2)C2(CN(Cc3nccs3)C2)N1CCC(F)(F)F,> 10 µM (inactive)
4,O=S(=O)(c1ccc(F)cc1)N1CCCCN2[C@H](CO)[C@H](c3ccc(-c4cncnc4)cc3)[C@H]2C1,> 10 µM (inactive)
5,COc1ccc2c3c([nH]c2c1)[C@H](CO)N(C)CC31CCN(S(=O)(=O)c2ccc(C)cc2)CC1,> 10 µM (inactive)
6,O=C(Nc1ccc(F)cc1)N1[C@@H](CO)[C@@H]2c3ccccc3NC[C@@H]21,> 10 µM (inactive)
7,O=C(c1ccc2c(c1)OCO2)N1C[C@@H]2[C@H](c3ccccc31)[C@H](CO)N2C(=O)CC1CC1,> 10 µM (inactive)
8,C/C=C/c1ccc([C@H]2[C@@H](CO)N(CC3CCCC3)C23CN(C(=O)CC)C3)cc1,> 10 µM (inactive)
9,CCCC(=O)N1CC2(C1)CN(C(=O)c1ccc(F)cc1)[C@H](CO)c1[nH]c3cc(OC)ccc3c12,> 10 µM (inactive)
10,COc1cccc(CN2CC3(C2)[C@H](c2ccccc2)[C@H](CO)N3C(=O)Cc2ccccc2)c1,> 10 µM (inactive)
11,O=C(Nc1cc(F)ccc1F)N1CCCCN2[C@H](C1)[C@H](c1ccc(C3=CCCCC3)cc1)[C@@H]2CO,> 10 µM (inactive)
12,Cc1ccccc1-c1ccccc1[C@H]1[C@@H](C#N)N(C(=O)c2cccc(F)c2)[C@H]1CO,> 10 µM (inactive)
13,N#C[C@@H]1[C@H](c2ccccc2-c2cccc(F)c2)[C@H](CO)N1S(=O)(=O)c1cccc(F)c1,> 10 µM (inactive)
14,Cc1ccccc1-c1ccccc1[C@@H]1[C@@H](C#N)N(C(=O)c2ccccc2)[C@H]1CO,> 10 µM (inactive)
15,CCCN1[C@@H]2c3ccc(C4=CCCCC4)c(=O)n3C[C@@H]2[C@@H](CO)[C@@H]1C(=O)NC1Cc2ccccc2C1,> 10 µM (inactive)
16,O=C(C[C@@H]1CC[C@@H]2[C@H](COC[C@H](O)CN2CC2CCOCC2)O1)NCC1CCCCC1,> 10 µM (inactive)
17,O=C1CN(S(=O)(=O)Cc2ccccc2)C[C@@H]2[C@H](c3ccc(C#Cc4ccccc4)cc3)[C@@H](CO)N12,> 10 µM (inactive)
18,CN(C)CC(=O)N1CCCCN2[C@H](C1)[C@H](c1ccc(/C=C/c3ccccc3)cc1)[C@@H]2CO,> 10 µM (inactive)
19,CCCNC(=O)[C@@H]1[C@@H](CO)[C@@H]2Cn3c(cccc3=O)[C@@H]2N1C,> 10 µM (inactive)
20,C/C=C/c1ccc2c(c1)[C@H]1[C@H](CCN1C(=O)Cc1cccnc1)[C@@H](CO)N2C,> 10 µM (inactive)
21,O=C(Nc1nccs1)[C@@H]1[C@@H](CO)[C@@H]2Cn3c(cccc3=O)[C@H]1N2C(=O)C1CCCC1,> 10 µM (inactive)
22,O=C(NC1CCCC1)N1CCCCN2[C@H](CO)[C@@H](c3ccc(-c4cccnc4)cc3)[C@@H]2C1,> 10 µM (inactive)
23,O=C(NC1Cc2ccccc2C1)[C@H]1N[C@H]2c3cccc(=O)n3C[C@H]2[C@@H]1CO,> 10 µM (inactive)
24,O=S(=O)(c1ccccc1)N1CCCCN2[C@@H](CO)[C@@H](c3ccc(C#CC4CCCC4)cc3)[C@@H]2C1,> 10 µM (inactive)

row,Compound,active concentration
1,O=C1CNC[C@H]2[C@@H](c3ccc(C4=CCCC4)cc3)[C@@H](CO)N12,> 10 µM (inactive)
2,O=C(C[C@@H]1CC[C@@H]2[C@H](COC[C@H](O)CN2C(=O)c2ccc(F)cc2)O1)NCc1cccc(F)c1,> 10 µM (inactive)
3,C/C=C/c1ccccc1[C@H]1[C@@H](C#N)N(C(=O)NC2CCCCC2)[C@H]1CO,> 10 µM (inactive)
4,C[C@@H](NC(=O)[C@@H]1[C@@H](CO)[C@@H]2Cn3c(cccc3=O)[C@H]1N2CCC(F)(F)F)c1ccccc1,> 10 µM (inactive)
5,COCC(=O)N1[C@H](C(=O)Nc2ccccc2)[C@@H](CO)[C@@H]2Cn3c(ccc(-c4cccnc4)c3=O)[C@@H]21,> 10 µM (inactive)
6,CCS(=O)(=O)N1CC2(C1)[C@H](c1ccccc1)[C@@H](CO)N2C(=O)c1ccccc1,> 10 µM (inactive)
7,O=C(CC1CC1)N1[C@H](CO)[C@@H](c2ccccc2)C12CN(Cc1ccccc1F)C2,> 10 µM (inactive)
8,N#C[C@H]1[C@@H](c2ccccc2C2=CCCCC2)[C@H](CO)N1C(=O)c1cccc(F)c1,> 10 µM (inactive)
9,Cc1cccc(S(=O)(=O)N2CC[C@H]3[C@@H](CO)N(C)c4ccc(-c5ccccc5F)cc4[C@H]32)c1,> 10 µM (inactive)
10,CCC(=O)N1CC2(C1)[C@@H](c1ccccc1)[C@@H](CO)N2C(=O)NC(C)C,> 10 µM (inactive)
11,Cc1noc(C)c1NC(=O)N1C[C@@H](O)COC[C@@H]2O[C@H](CC(=O)NCC3CCCCC3)CC[C@H]21,> 10 µM (inactive)
12,COc1ccccc1CNC(=O)C[C@@H]1CC[C@@H]2[C@H](COC[C@@H](O)CN2C(=O)Nc2ccccc2)O1,> 10 µM (inactive)
13,N#C[C@@H]1[C@@H](c2ccccc2C2=CCCCC2)[C@@H](CO)N1S(=O)(=O)c1cccc(F)c1,> 10 µM (inactive)
14,Cn1cnc(S(=O)(=O)N2C[C@H](O)COC[C@H]3O[C@@H](CC(=O)NC4CCCC4)CC[C@@H]32)c1,> 10 µM (inactive)
15,O=C(Nc1ccc(F)cc1)N1CC(=O)N2[C@H](CO)[C@H](c3ccc(C#Cc4cccnc4)cc3)[C@@H]2C1,> 10 µM (inactive)
16,O=C(Nc1ccc(F)cc1)N1CC(=O)N2[C@H](C1)[C@H](c1ccc(C#Cc3cccnc3)cc1)[C@@H]2CO,> 10 µM (inactive)
17,O=C(C[C@@H]1CC[C@@H]2[C@H](COC[C@@H](O)CN2C(=O)Nc2ccc(Cl)c(Cl)c2)O1)NCc1ccc(Cl)cc1,> 10 µM (inactive)
18,N#C[C@@H]1[C@H](c2ccccc2-c2ccccc2)[C@H](CO)N1C(=O)Cc1ccncc1,> 10 µM (inactive)
19,CN(C)C(=O)C[C@H]1CC[C@H]2[C@@H](COC[C@H](O)CN2CC2CCCC2)O1,> 10 µM (inactive)
20,CN(C)CC(=O)N1CCCCN2[C@H](C1)[C@@H](c1ccc(/C=C/c3ccccc3)cc1)[C@@H]2CO,> 10 µM (inactive)
21,O=C(c1ccccn1)N1CC(=O)N2[C@H](CO)[C@H](c3ccc(C4=CCCC4)cc3)[C@@H]2C1,> 10 µM (inactive)
22,CCC(=O)N1CC2(C1)[C@@H](c1ccc(-c3ccc(F)cc3)cc1)[C@H](CO)N2C(=O)CC,> 10 µM (inactive)
23,C/C=C/c1ccc([C@@H]2[C@@H](CO)N3C(=O)CN(S(=O)(=O)c4ccccc4)C[C@H]23)cc1,> 10 µM (inactive)
